Patent US20260028354A1, “TETRAHYDRONAPHTHALENE DERIVATIVES AS ESTROGEN RECEPTOR DEGRADERS” (REGENT OF THE UNIVERSITY OF MICHIGAN, priority 2022, published 2026)

Assay: Western blot analysis for "B" compounds
Format: cell-based
Conditions: read-out: Traditional Western Degradation Potency (DC50)
How it was run: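 Compound-treated cells lysed in RIPA buffer with protease inhibitors; equal protein (BCA) run on 10% SDS-PAGE, transferred to PVDF and probed with target antibodies. Band intensities quantified by densitometry and normalized to GAPDH.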

O=C1CCC(N2C(=O)c3cc4c(cc3C2=O)CN(CC(=O)N2CCC3(CC2)CCN(c2cnc([C@H]5c6ccc(O)cc6CC[C@H]5c5ccccc5)cn2)CC3)C4)C(=O)N1 (mixture of isomers) [Compound B85, 2-(2,6-dioxopiperidin-3-yl)-6-(2-(9-(5-((1R,2R)-6-hydroxy-2-phenyl-1,2,3,4-tetrahydronaphthalen-1-yl)pyrazin-2-yl)-3,9-diazaspiro[5.5]undecan-3-yl)-2-oxoethyl)-6,7-dihydropyrrolo[3,4-f]isoindole-1,3(2H,5H)-dione] and O=C1CCC(N2C(=O)c3cc4c(cc3C2=O)CN(CC(=O)N2CCC3(CC2)CCN(c2ccc([C@H]5c6ccc(O)cc6CC[C@H]5c5ccccc5)nc2)CC3)C4)C(=O)N1 (mixture of isomers) [Compound B86, 2-(2,6-dioxopiperidin-3-yl)-6-(2-(9-(6-((1R,2R)-6-hydroxy-2-phenyl-1,2,3,4-tetrahydronaphthalen-1-yl)pyridin-3-yl)-3,9-diazaspiro[5.5]undecan-3-yl)-2-oxoethyl)-6,7-dihydropyrrolo[3,4-f]isoindole-1,3(2H,5H)-dione] cannot be ordered by DC50: > 100 nM for the first, > 100 nM for the second.

First: O=C1CCC(N2Cc3cc4c(cc3C2=O)CN(CC(=O)N2CCC3(CCN(c5ccc([C@@H]6c7ccc(O)cc7CC[C@@H]6c6ccccc6)cc5)CC3)C2)C4)C(=O)N1 (mixture of isomers) [Compound B182, 3-(6-(2-(8-(4-((1R,2S)-6-hydroxy-2-phenyl-1,2,3,4-tetrahydronaphthalen-1-yl)phenyl)-2,8-diazaspiro[4.5]decan-2-yl)-2-oxoethyl)-1-oxo-3,5,6,7-tetrahydropyrrolo[3,4-f]isoindol-2(1H)-yl)piperidine-2,6-dione]
Second: O=C1CCC(N2Cc3cc4c(cc3C2=O)CN(CC(=O)N2CCC3(CC2)CN(c2ccc([C@@H]5c6ccc(O)cc6CC[C@@H]5c5ccccc5)cc2)C3)C4)C(=O)N1 (mixture of isomers) [Compound B183, 3-(6-(2-(2-(4-((1R,2S)-6-hydroxy-2-phenyl-1,2,3,4-tetrahydronaphthalen-1-yl)phenyl)-2,7-diazaspiro[3.5]nonan-7-yl)-2-oxoethyl)-1-oxo-3,5,6,7-tetrahydropyrrolo[3,4-f]isoindol-2(1H)-yl)piperidine-2,6-dione]
The DC50 of the first is higher: 10 to 100 nM for the first, < 10 nM for the second.

Compared with O=C1CCC(N2Cc3cc4c(cc3C2=O)CN(CC(=O)N2CCC3(C2)CN(c2ccc([C@@H]5c6ccc(O)cc6CC[C@@H]5c5ccccc5)cc2)C3)C4)C(=O)N1 (mixture of isomers) [Compound B184, 3-(6-(2-(2-(4-((1R,2S)-6-hydroxy-2-phenyl-1,2,3,4-tetrahydronaphthalen-1-yl)phenyl)-2,6-diazaspiro[3.4]octan-6-yl)-2-oxoethyl)-1-oxo-3,5,6,7-tetrahydropyrrolo[3,4-f]isoindol-2(1H)-yl)piperidine-2,6-dione], O=C1CCC(N2C(=O)c3cc4c(cc3C2=O)CN(CC(=O)N2CCC3(C2)CN(c2ccc([C@@H]5c6ccc(O)cc6CC[C@@H]5c5ccccc5)cc2)C3)C4)C(=O)N1 (mixture of isomers) [Compound B187, 2-(2,6-dioxopiperidin-3-yl)-6-(2-(2-(4-((1R,2S)-6-hydroxy-2-phenyl-1,2,3,4-tetrahydronaphthalen-1-yl)phenyl)-2,6-diazaspiro[3.4]octan-6-yl)-2-oxoethyl)-6,7-dihydropyrrolo[3,4-f]isoindole-1,3(2H,5H)-dione] is higher in DC50: < 10 nM for the first, 10 to 100 nM for the second.

O=C1CCC(N2C(=O)c3cc4c(cc3C2=O)CN(CC(=O)N2CCC3(CCN(c5ccc([C@@H]6c7ccc(O)cc7CC[C@@H]6c6ccccc6)cc5)CC3)C2)C4)C(=O)N1 (mixture of isomers) [Compound B185, 2-(2,6-dioxopiperidin-3-yl)-6-(2-(8-(4-((1R,2S)-6-hydroxy-2-phenyl-1,2,3,4-tetrahydronaphthalen-1-yl)phenyl)-2,8-diazaspiro[4.5]decan-2-yl)-2-oxoethyl)-6,7-dihydropyrrolo[3,4-f]isoindole-1,3(2H,5H)-dione] and O=C1CCC(N2C(=O)c3cc4c(cc3C2=O)CN(CC(=O)N2CCC3(CC2)CN(c2ccc([C@@H]5c6ccc(O)cc6CC[C@@H]5c5ccccc5)cc2)C3)C4)C(=O)N1 (mixture of isomers) [Compound B186, 2-(2,6-dioxopiperidin-3-yl)-6-(2-(2-(4-((1R,2S)-6-hydroxy-2-phenyl-1,2,3,4-tetrahydronaphthalen-1-yl)phenyl)-2,7-diazaspiro[3.5]nonan-7-yl)-2-oxoethyl)-6,7-dihydropyrrolo[3,4-f]isoindole-1,3(2H,5H)-dione] fall in the same range of DC50: 10 to 100 nM for the first, 10 to 100 nM for the second.

O=C1CCC(N2C(=O)c3cc4c(cc3C2=O)CN(CC(=O)N2CC3(C2)CN(c2ccc([C@@H]5c6ccc(O)cc6CC[C@@H]5c5ccc(F)cc5)cc2)C3)C4)C(=O)N1 (mixture of isomers) [Compound B188, 2-(2,6-dioxopipcridin-3-yl)-6-(2-(6-(4-((1R,2S)-2-(4-fluorophenyl)-6-hydroxy-1,2,3,4-tetrahydronaphthalen-1-yl)phenyl)-2,6-diazaspiro[3.3]heptan-2-yl)-2-oxoethyl)-6,7-dihydropyrrolo[3,4-f]isoindole-1,3(2H,5H)-dione] and O=C1CCC(N2C(=O)c3cc4c(cc3C2=O)CN(CC(=O)N2CCC3(CC2)CN(c2ccc([C@@H]5c6ccc(O)cc6CC[C@@H]5c5ccc(F)cc5Cl)cc2)C3)C4)C(=O)N1 (mixture of isomers) [Compound B259, 6-(2-(2-(4-((1R,2S)-2-(2-chloro-4-fluorophenyl)-6-hydroxy-1,2,3,4-tetrahydronaphthalen-1-yl)phenyl)-2,7-diazaspiro[3.5]nonan-7-yl)-2-oxoethyl)-2-(2,6-dioxopiperidin-3-yl)-6,7-dihydropyrrolo[3,4-f]isoindole-1,3(2H,5H)-dione] fall in the same range of DC50: 10 to 100 nM for the first, 10 to 100 nM for the second.

First: O=C1CCC(N2C(=O)c3cc4c(cc3C2=O)CN(C(=O)CN2CCC3(CC2)CCN(c2ccc([C@@H]5c6ccc(O)cc6CC[C@@H]5c5ccccc5)cc2)CC3)CC4)C(=O)N1 (mixture of isomers) [Compound B190, 2-(2,6-dioxopiperidin-3-yl)-6-(2-(9-(4-((1R,2S)-6-hydroxy-2-phenyl-1,2,3,4-tetrahydronaphthalen-1-yl)phenyl)-3,9-diazaspiro[5.5]undecan-3-yl)acetyl)-5,6,7,8-tetrahydro-1H-pyrrolo[3,4-g]isoquinoline-1,3(2H)-dione]
Second: O=C1CCC(N2C(=O)c3cc4c(cc3C2=O)CN(CC(=O)N2CCC3(CC2)CCN(c2ccc([C@@H]5c6ccc(O)cc6CC[C@@H]5c5ccccc5)cc2)CC3)CC4)C(=O)N1 (mixture of isomers) [Compound B191, 2-(2,6-dioxopiperidin-3-yl)-6-(2-(9-(4-((1R,2S)-6-hydroxy-2-phenyl-1,2,3,4-tetrahydronaphthalen-1-yl)phenyl)-3,9-diazaspiro[5.5]undecan-3-yl)-2-oxoethyl)-5,6,7,8-tetrahydro-1H-pyrrolo[3,4-g]isoquinoline-1,3(2H)-dione]
The DC50 of the first is higher: > 100 nM for the first, 10 to 100 nM for the second.

First: O=C1CCC(N2C(=O)c3cc4c(cc3C2=O)CN(CC(=O)N2CC3(CCN(c5ccc([C@@H]6c7ccc(O)cc7CC[C@@H]6c6ccccc6)cc5)CC3)C2)CC4)C(=O)N1 (mixture of isomers) [Compound B192, 2-(2,6-dioxopiperidin-3-yl)-6-(2-(7-(4-((1R,2S)-6-hydroxy-2-phenyl-1,2,3,4-tetrahydronaphthalen-1-yl)phenyl)-2,7-diazaspiro[3.5]nonan-2-yl)-2-oxoethyl)-5,6,7,8-tetrahydro-1H-pyrrolo[3,4-g]isoquinoline-1,3(2H)-dione]
Second: O=C1CCC(N2C(=O)c3cc4c(cc3C2=O)CN(C(=O)CN2CC3(CCN(c5ccc([C@@H]6c7ccc(O)cc7CC[C@@H]6c6ccccc6)cc5)CC3)C2)CCC4)C(=O)N1 (mixture of isomers) [Compound B260, 2-(2,6-dioxopiperidin-3-yl)-6-(2-(7-(4-((1R,2S)-6-hydroxy-2-phenyl-1,2,3,4-tetrahydronaphthalen-1-yl)phenyl)-2,7-diazaspiro[3.5]nonan-2-yl)acetyl)-6,7,8,9-tetrahydroazepino[3,4-f]isoindole-1,3(2H,5H)-dione]
The DC50 of the first is lower: 10 to 100 nM for the first, > 100 nM for the second.

O=C1CCC(N2C(=O)c3cc4c(cc3C2=O)CN(CC(=O)N2CCC3(CC2)CCN(c2ccc([C@@H]5c6ccc(O)cc6CC[C@@H]5c5ccc(F)cc5)cc2)CC3)CC4)C(=O)N1 (mixture of isomers) [Compound B193, 2-(2,6-dioxopiperidin-3-yl)-6-(2-(9-(4-((1R,2S)-2-(4-fluorophenyl)-6-hydroxy-1,2,3,4-tetrahydronaphthalen-1-yl)phenyl)-3,9-diazaspiro[5.5]undecan-3-yl)-2-oxoethyl)-5,6,7,8-tetrahydro-1H-pyrrolo[3,4-g]isoquinoline-1,3(2H)-dione] and O=C1CCC(N2C(=O)c3cc4c(cc3C2=O)CN(CCN2CCC3(CC2)CCN(c2ccc([C@@H]5c6ccc(O)cc6CC[C@@H]5c5ccccc5)cc2)CC3)C4)C(=O)N1 (mixture of isomers) [Compound B198, 2-(2,6-dioxopiperidin-3-yl)-6-(2-(9-(4-((1R,2S)-6-hydroxy-2-phenyl-1,2,3,4-tetrahydronaphthalen-1-yl)phenyl)-3,9-diazaspiro[5.5]undecan-3-yl)ethyl)-6,7-dihydropyrrolo[3,4-f]isoindole-1,3(2H,5H)-dione] fall in the same range of DC50: 10 to 100 nM for the first, 10 to 100 nM for the second.

O=C1CCC(N2C(=O)c3cc4c(cc3C2=O)CN(CCN2CCC3(CC2)CN(c2ccc([C@@H]5c6ccc(O)cc6CC[C@@H]5c5ccccc5)cc2)C3)C4)C(=O)N1 (mixture of isomers) [Compound B196, 2-(2,6-dioxopiperidin-3-yl)-6-(2-(2-(4-((1R,2S)-6-hydroxy-2-phenyl-1,2,3,4-tetrahydronaphthalen-1-yl)phenyl)-2,7-diazaspiro[3.5]nonan-7-yl)ethyl)-6,7-dihydropyrrolo[3,4-f]isoindole-1,3(2H,5H)-dione] and O=C1CCC(N2C(=O)c3cc4c(cc3C2=O)CN(CCN2CC3(CCN(c5ccc([C@@H]6c7ccc(O)cc7CC[C@@H]6c6ccccc6)cc5)CC3)C2)C4)C(=O)N1 (mixture of isomers) [Compound B197, 2-(2,6-dioxopiperidin-3-yl)-6-(2-(7-(4-((1R,2S)-6-hydroxy-2-phenyl-1,2,3,4-tetrahydronaphthalen-1-yl)phenyl)-2,7-diazaspiro[3.5]nonan-2-yl)ethyl)-6,7-dihydropyrrolo[3,4-f]isoindole-1,3(2H,5H)-dione] fall in the same range of DC50: 10 to 100 nM for the first, 10 to 100 nM for the second.
